Laboratory results taken from patent US11980688B2, “Nanoliposome-microbubble conjugate including drug for hair loss treatment encapsulated in nanoliposome and composition for alleviating or treating hair loss containing same” (priority 2018, dated 2024).

Assays:
C57BL/6J mice = assay: Testosterone-induced hair loss mouse model, hair growth; assay type: in vivo; settings: FIG. 5
Description: The hair on the back of each of 6-week-old mice (C57BL/6J) was epilated using an animal epilator (Philips) and hair removal cream (Veet), after which testosterone was dissolved in a mixed solution of propylene glycol and ethanol (3:7 (v:v)) and applied every day at a concentration of 30 μg/ml, and thus an environment similar to that of human hair loss was made.
In the present experiment, the individual test groups were as follows (testosterone was applied to the skin in all cases). • (1) A control group (non-treated group); • (2) A group treated with testosterone; • (3) A group treated with testosterone and then subjected to skin application with the nanoliposome-microbubble conjugate of Example 1; • (4) A group treated with testosterone and then subjected to oral administration with a commercially available finasteride solution; • (5) A group treated with testosterone and then subjected to skin application with a commercially available finasteride solution; • (6) A group treated with testosterone and then subjected to skin application with the nanoliposome of Comparative Example 1; and • (7) A group subjected to skin application with the nanoliposome-microbubble conjugate of Example 1.
A nanoliposome-microbubble conjugate (HTP) configured such that the nanoliposome and the microbubble were conjugated and dispersed at a ratio of 2:1 was used. 200 μl thereof, having a total finasteride content of 1 μg, was applied on the entire epilated back of the mice using a plastic spatula, and after 3 min, was exposed to ultrasound using a medical sonicator. Here, the nanoliposome-microbubble conjugate was applied five times at an interval of one day. Under the same conditions, the total finasteride content was matched in the group treated with the commercially available finasteride solution in lieu of the solution of Example 1 or Comparative Example 1. […]

DPCs = assay: Cell viability, WST-1 assay, testosterone-induced apoptosis; assay type: cell-based; settings: 200 μM testosterone, every 24 hr for 4 days, DPCs compared to 3T3 fibroblasts, FIG. 4 left
Description: Cell viability was evaluated through WST-1 assay (EZ-cytox Cell Viability Assay Kit). DPCs and 3T3 fibroblasts were cultured at a density of 1×10^4/well in a 96-well plate for 24 hr. Here, the culture medium was replaced with a new medium containing 200 μM testosterone, and after 24 hr, a WST-1 reagent was added thereto. The WST-1 reagent was added in an amount of 10% of the culture broth, and after 1 hr, absorbance was measured at 460 nm and thus cell survival and proliferation were compared with a control group (non-treated group). Cell survival was measured at an interval of 24 hr for 4 days after testosterone treatment.
After treatment with the nanoliposome-microbubble conjugate (HTP) of the present invention before treatment with testosterone in the same manner, the culture medium was replaced with a new medium containing 200 μM testosterone, the subsequent procedures were conducted as above, and the state of cells was observed. A comparative group was treated with the nanoliposome-microbubble conjugate (HTP) alone.

| Compound | hair growth after testosterone, skin application (C57BL/6J mice; testosterone 30 μg/ml daily, total finasteride 1 μg, applied five times at one-day interval) | hair growth after testosterone, oral administration (C57BL/6J mice; testosterone daily, oral dose 10 times the application dose, five times) | hair growth, testosterone alone (C57BL/6J mice; testosterone 30 μg/ml applied every day to epilated back) | extent of apoptosis over time (DPCs) |
| --- | --- | --- | --- | --- |
| CC(C)(C)NC(=O)[C@H]1CC[C@H]2[C@@H]3CC[C@H]4NC(=O)C=C[C@]4(C)[C@H]3CC[C@]12C [commercially available finasteride drug, finasteride] | hair started growing on the seventh week | hair started growing on the seventh week | – | – |
| C[C@]12CC[C@H]3[C@@H](CCC4=CC(=O)CC[C@@]43C)[C@@H]1CC[C@@H]2O [testosterone] | – | – | grew hardly any hair | greatly increased in DPCs compared to 3T3 cells |
